# Measured values published in patent JP2011231022A, “イミダゾロン誘導体” (Ajinomoto Co Inc, priority 2010, dated 2011).
# Like-named read-outs stand apart in the source and are kept apart here.
# Tests used:
# [1] = tested on: rat isolated blood vessel, thoracic aorta ring (ラット摘出血管、大動脈リング); assay: Vasorelaxation of phenylephrine-precontracted isolated rat thoracic aorta rings (Example 1, screening); assay type: cell-based; settings: 100 μM; 1 μM phenylephrine precontraction; endothelium intact
# [2] = tested on: phenylephrine-induced hypertensive model rat (フェニレフリン昇圧モデルラット); assay: Hypotensive action in phenylephrine-induced hypertensive model rats (Example 8); assay type: in vivo; settings: Wistar male rat; 40 mg/kg intravenous; phenylephrine 75 μg/kg/min
# [3] = Oral absorption in fasted male ICR mice, plasma concentration by LC/MS (Example 7); assay type: in vivo; settings: mouse (ICR male, fasted), 100 mg/kg oral
# [4] = tested on: rat isolated blood vessel (ラット摘出血管); assay: EC50 of vasorelaxation in phenylephrine-precontracted isolated rat aorta rings (Example 2); assay type: cell-based
# aorta ring (大動脈リング) [5] = assay: Involvement of PI3K in relaxation of isolated rat aorta rings, wortmannin pretreatment (Example 4); assay type: cell-based; settings: for relaxation rate: wortmannin (WO) 200 nM, 15 min pretreatment
# aorta ring (大動脈リング) [6] = assay: Endothelium-derived NO mechanism study in isolated rat aorta rings: endothelium removal and inhibitors (Example 3); assay type: cell-based; settings: for relaxation of phenylephrine contraction with C-PTIO: NO scavenger C-PTIO 300 μM; for relaxation of phenylephrine contraction with C-PTIO / relaxation of phenylephrine contraction with L-NAME / relaxation of phenylephrine contraction with indomethacin / relaxation of phenylephrine contraction with ODQ: 15 min pretreatment; for relaxation of phenylephrine contraction with L-NAME: NOS inhibitor L-NAME 100 μM; for vasorelaxing action after endothelium removal: aorta ring with endothelium mechanically removed; for relaxation of phenylephrine contraction with indomethacin: cyclooxygenase inhibitor indomethacin 10 μM; for relaxation of phenylephrine contraction with ODQ: soluble guanylate cyclase inhibitor ODQ 1 μM
# [7] = tested on: Akt serine 473 residue (Aktセリン473残基); assay: Phosphorylation of Akt serine 473 in isolated rat thoracic aorta rings (Examples 5 and 6); assay type: cell-based; settings: 5 min; for enhancement of Akt serine 473 phosphorylation: without wortmannin
# [8] = tested on: eNOS serine 1177 residue (eNOSセリン1177残基); assay: Phosphorylation of eNOS serine 1177 in isolated rat thoracic aorta rings (Examples 5 and 6); assay type: cell-based; settings: 5 min; for enhancement of eNOS serine 1177 phosphorylation: without wortmannin
# [9] = 100〜500 μM, wortmannin (WO) 200 nM, 20 min pretreatment
# [10] = concentration giving 50% relaxation of phenylephrine contraction, 1〜100 μM, logistic method, read-out: EC50
# [11] = 100 μM or 300 μM, wortmannin (WO) pretreatment
smiles,measurement,setting,value
N=C(N)NCCC[C@H](NCC(=O)[C@@H](O)[C@H](O)[C@H](O)CO)C(=O)O [フラクトシルアルギニン],vasodilating action (relaxation of phenylephrine contraction),[1],血管拡張作用が見出せなかった
"CC1N=C(NCCC[C@H](N)C(=O)O)NC1=O (stereo partly shown) [I−1, Nδ−(5−ヒドロ−5−メチル−4−イミダゾロン−2−イル)−L−オルニチン]",maximum decrease of mean blood pressure,[2],12.7 mmHg
same,time from start of administration to onset of hypotensive action,[2],~1 min
same,Cmax at 0.25 h,"[3]; at 15 min after dosing, read-out: maximum plasma concentration",174 µM
same,Tmax,[3]; read-out: time of maximum plasma concentration (converted),15 min
same,EC50,[4],13 µM
same,relaxation rate,aorta ring (大動脈リング) [5]; 50 μM,10±3%
same,inhibition at 50 µM,"aorta ring (大動脈リング) [5]; Rattus norvegicus, read-out: relaxation rate",93 ± 3%
same,relaxation of phenylephrine contraction with C-PTIO,aorta ring (大動脈リング) [6],血管の弛緩が大幅に減弱した
same,relaxation of phenylephrine contraction with L-NAME,aorta ring (大動脈リング) [6],血管の弛緩がほとんど見られなかった
same,vasorelaxing action after endothelium removal,aorta ring (大動脈リング) [6],完全に消失した
same,relaxation of phenylephrine contraction with indomethacin,aorta ring (大動脈リング) [6],血管の弛緩に全く影響を与えなかった
same,relaxation of phenylephrine contraction with ODQ,aorta ring (大動脈リング) [6],血管の弛緩が大幅に減弱した
"CC1(CO)N=C(NCCC[C@H](N)C(=O)O)NC1=O (stereo partly shown) [I−2, Nδ−(5−メチル−5−ヒドロキシメチル−4−イミダゾロン−2−イル)−L−オルニチン]",enhancement of Akt serine 473 phosphorylation,[7]; 100〜500 μM,Aktセリン473残基のリン酸化亢進作用を示した
same,Akt serine 473 phosphorylation after wortmannin pretreatment,[7]; [9],完全に抑制され
same,enhancement of eNOS serine 1177 phosphorylation,[8]; 100〜500 μM,濃度依存的にeNOSセリン1177残基のリン酸化亢進作用を示した
same,eNOS serine 1177 phosphorylation after wortmannin pretreatment,[8]; [9],完全に抑制された
OC[C@H]1OC(O)[C@H](O)[C@@H](O)[C@@H]1O (stereo partly shown) [グルコース],vasodilating action (relaxation of phenylephrine contraction),[1],血管拡張作用が見出せなかった
"N[C@@H](CCCNC1=NC(CCO)C(=O)N1)C(=O)O (stereo partly shown) [I−3, Nδ−[5−ヒドロ−5−(2−ヒドロキシエチル)−4−イミダゾロン−2−イル]−L−オルニチン]",enhancement of Akt serine 473 phosphorylation,[7]; 100〜500 μM,Aktセリン473残基のリン酸化亢進作用を示した
same,Akt serine 473 phosphorylation after wortmannin pretreatment,[7]; [9],完全に抑制され
same,EC50,[4]; [10],71 µM
same,relaxation rate,aorta ring (大動脈リング) [5]; 100 μ (so in the source),3±3%
same,inhibition at 100 µM,"aorta ring (大動脈リング) [5]; Rattus norvegicus, 100 μ (so in the source), untreated control (no wortmannin), read-out: relaxation rate",62 ± 8%
same,enhancement of eNOS serine 1177 phosphorylation,[8]; 100〜500 μM,濃度依存的にeNOSセリン1177残基のリン酸化亢進作用を示した
same,eNOS serine 1177 phosphorylation after wortmannin pretreatment,[8]; [9],完全に抑制された
same,relaxation of phenylephrine contraction with C-PTIO,aorta ring (大動脈リング) [6],血管の弛緩が大幅に減弱した
same,relaxation of phenylephrine contraction with L-NAME,aorta ring (大動脈リング) [6],血管の弛緩がほとんど見られなかった
same,vasorelaxing action after endothelium removal,aorta ring (大動脈リング) [6],完全に消失した
same,relaxation of phenylephrine contraction with indomethacin,aorta ring (大動脈リング) [6],血管の弛緩に全く影響を与えなかった
same,relaxation of phenylephrine contraction with ODQ,aorta ring (大動脈リング) [6],血管の弛緩が大幅に減弱した
"N[C@@H](CCCNC1=NC(CC(O)C(O)CO)C(=O)N1)C(=O)O (stereo partly shown) [I−7, Nδ−[5−ヒドロ−5−(2,3,4−トリヒドロキシブチル)−4−イミダゾロン−2−イル]−L−オルニチン]",Akt serine 473 phosphorylation after wortmannin pretreatment,[7]; [11],完全に抑制され
same,enhancement of Akt serine 473 phosphorylation,[7]; 300 μM,Aktセリン473残基のリン酸化亢進作用を示した
same,EC50,[4]; [10],25 µM
same,relaxation rate,aorta ring (大動脈リング) [5]; 50 μM,5±2%
same,inhibition at 50 µM,"aorta ring (大動脈リング) [5]; Rattus norvegicus, 50 μM, untreated control (no wortmannin), read-out: relaxation rate",90 ± 5%
same,eNOS serine 1177 phosphorylation after wortmannin pretreatment,[8]; [11],完全に抑制された
same,enhancement of eNOS serine 1177 phosphorylation,[8]; 300 μM,eNOSセリン1177残基のリン酸化亢進作用を示した
same,relaxation of phenylephrine contraction with C-PTIO,aorta ring (大動脈リング) [6],血管の弛緩が大幅に減弱した
same,relaxation of phenylephrine contraction with L-NAME,aorta ring (大動脈リング) [6],血管の弛緩がほとんど見られなかった
same,vasorelaxing action after endothelium removal,aorta ring (大動脈リング) [6],完全に消失した
same,relaxation of phenylephrine contraction with indomethacin,aorta ring (大動脈リング) [6],血管の弛緩に全く影響を与えなかった
same,relaxation of phenylephrine contraction with ODQ,aorta ring (大動脈リング) [6],血管の弛緩が大幅に減弱した
N=C(N)NCCC[C@H](N)C(=O)O [L−アルギニン],vasodilating action (relaxation of phenylephrine contraction),[1],血管拡張作用が見出せなかった
